Values joined by “and” are separate entries in the source; they are usually repeats but may differ in a detail not shown here. Equal values may be shown once. Marks after values point to notes of the source that are not given here.
Columns and labels:
[1] = Separation of Eu/Yb mixture by precipitation from water/acetonitrile solutions using L5 (Example 17); type: physicochemical; details: for Precipitate concentration [mM] Eu / Precipitate concentration [mM] Yb: dissolved to 100 μL
Experimental: 3 reaction mixtures, differing in acetonitrile content (group A=10%, group B=20%, group C=50%) were prepared in plastic round-bottom 2 mL Eppendorf tubes, each in duplicate. For group A, the stock solutions were pipetted as follows: 5 μL 100 mM aqueous solution of EuCl3; 5 μL 100 mM aqueous solution YbC13; 10 μL 100 mM aqueous solution of compound L5; 20 μL 3 M MOPS buffer pH=7; 50 μL water; 10 μL acetonitrile.
For group B, the stock solutions were pipetted as follows: 5 μL 100 mM aqueous solution of EuCl3; 5 μL 100 mM aqueous solution YbC13; 10 μL 100 mM aqueous solution of compound L5; 20 μL 3 M MOPS buffer pH=7; 40 μL water; 20 μL acetonitrile. For group C, the stock solutions were pipetted as follows: 5 μL 100 mM aqueous solution of EuCl3; 5 μL 100 mM aqueous solution YbC13; 10 μL 100 mM aqueous solution of compound L5; 20 μL 3 M MOPS buffer pH=7; 10 μL water; 50 μL acetonitrile.
Each tube was equipped with one PTFE-coated magnetic stir bar and sealed, and the mixture was stirred on a magnetic stirrer for 24 hours at room temperature. The tubes were then centrifuged and the supernatants were carefully pipetted out and transferred to a new set of tubes. To the precipitate was added 100 μL 1 M HCl and mixture was stirred until full dissolution (overnight at room temperature, pH=0). Concentrations of Eu and Yb in the supernatants and in the re-dissolved precipitates were determined by ICP-OES. The resulting absolute concentrations of both metals in the supernatants and precipitates, as well as calculated values of the separation factor Yb/Eu according to the formula from Example 11), are summarized in Table 11.

[2] = Separation of Nd/Pr mixture by repeated precipitation using L5 and α-HIBA (Example 19); type: physicochemical; details: for Precipitate concentration [mM] Nd / precipitate concentration [mM] Pr: dissolved to 200 μL
Experimental: Stock solutions were pipetted into 4 mL glass vials to prepare reaction mixtures with concentrations as follows: • 1. 11 mM (1.1 eq) chelator L5 • 2. 5 mM (0.5 eq) PrCl3 • 3. 5 mM (0.5 eq) NdCl3 • 4. […] (4 eq) α-HIBA pH=6.5 • 5. 500 mM (50 eq) MOPS pH=7
Three aqueous reaction mixtures, numbered 1-3, were prepared with a total volume of 2 mL each and were treated identically throughout the process. A PTFE-coated magnetic stir bar was added to each and the reaction mixtures were stirred on a magnetic stirrer overnight at room temperature. After 18 hours, a 200 μL aliquot of the resulting suspension was taken from each vial and labelled as Al, A2, or A3, according to the reaction mixture number it was taken from. The aliquots were then centrifuged in a plastic Eppendorf centrifuge tube. The supernatant was carefully pipetted from each and transferred to a new set of tubes. To the precipitate was added 200 μL 1 M HCl and the mixture was stirred until full dissolution (about 1 hour at room temperature). The Nd and Pr content of these precipitate and supernatant samples was determined by ICP-OES. The remaining 1800 μL of reaction mixture were centrifuged in plastic Eppendorf centrifuge vials, and the supernatant was set aside. A sample of the supernatant was analysed on HPLC-MS and peak areas were compared to those of a standard 10 mM chelate solution; this allowed for calculation of the approximate concentration of chelate remaining in solution, and therefore of the quantity of chelate which had precipitated. The total volume for subsequent reactions was scaled according to this information, such that the concentration of chelate in solution prior to precipitation was 10 mM, even as the net quantity of chelate present was reduced. The precipitate, then, was dissolved by addition of 25 molar equivalents of 1 M HCl and transferred to a clean 4 mL glass vial with a PTFE-coated magnetic stir bar. 4 molar equivalents of a-HIBA were added to this vial, followed by 50 molar equivalents 3 M MOPS pH=7, the necessary calculated volume of water, and 25 molar equivalents 2 M NaOH to finish neutralising the reaction mixture. (The final reaction volume here was not so important as the final reaction concentrations.) The reaction mixtures were again stirred on a magnetic stirrer at room temperature overnight. After 18 hours, the resulting suspensions were treated in the same manner as before, with 200 μL aliquots (labelled as B1, B2, B3) taken for ICP-OES determination of the Nd and Pr content of the precipitate and supernatant. The remaining 1600 μL of reaction mixture were centrifuged, and the supernatant was analysed by HPLC-MS; the precipitate was treated as before to again yield a reaction solution with an initial concentration of 10 mM of chelate. The reaction mixtures were stirred overnight for the third repetition of processing, and 200 μL aliquots (C1, C2, C3) were again treated for ICP-OES determination of Nd and Pr content in the precipitate and supernatant after 18 hours. The resulting absolute concentrations of both metals in the supernatants and precipitates, as well as calculated values of the separation factor Nd/Pr according to the formula from Example 11), are summarized in Table 13. […] The average separation factor was 1.69.

[3] = group A, 10% acetonitrile, mean of duplicates
[4] = group B, 20% acetonitrile, mean of duplicates
[5] = group C, 50% acetonitrile, mean of duplicates

## O=C(O)CN1CCN(CC(=O)O)CCN(Cc2cccc3ccccc23)CCN(CC(=O)O)CC1 [L5, 2,2′,2″-(10-(naphthalene-1-ylmethyl)-1,4,7,10-tetraazacyklododekane-1,4,7-triyl)triacetic acid]
[1]; group A, 10% acetonitrile
  Supernatant concentration [mM] Eu: 0.58 mM and 0.35 mM
  Supernatant concentration [mM] Yb: 4.55 mM and 4.42 mM
  Precipitate concentration [mM] Eu: 2.78 mM and 2.98 mM
  Precipitate concentration [mM] Yb: 0.29 mM and 0.36 mM
[1]; [3]
  Precipitate concentration [mM] Eu: 2.88 mM
  Precipitate concentration [mM] Yb: 0.32 mM
  Supernatant concentration [mM] Eu: 0.47 mM
  Supernatant concentration [mM] Yb: 4.48 mM
[1]; group B, 20% acetonitrile
  Supernatant concentration [mM] Eu: 0.45 mM and 0.63 mM
  Supernatant concentration [mM] Yb: 3.99 mM and 4.71 mM
  Precipitate concentration [mM] Eu: 3.16 mM and 2.95 mM
  Precipitate concentration [mM] Yb: 0.38 mM and 0.41 mM
[1]; [4]
  Precipitate concentration [mM] Eu: 3.06 mM
  Precipitate concentration [mM] Yb: 0.40 mM
  Supernatant concentration [mM] Eu: 0.54 mM
  Supernatant concentration [mM] Yb: 4.35 mM
[1]; group C, 50% acetonitrile
  Supernatant concentration [mM] Eu: 1.51** mM and 0.79** mM
  Supernatant concentration [mM] Yb: 6.29** mM and 5.77** mM
  Precipitate concentration [mM] Eu: 3.22 mM and 3.90 mM
  Precipitate concentration [mM] Yb: 0.42 mM and 0.37 mM
[1]; [5]
  Precipitate concentration [mM] Eu: 3.56 mM
  Precipitate concentration [mM] Yb: 0.39 mM
  Supernatant concentration [mM] Eu: 1.15 mM
  Supernatant concentration [mM] Yb: 6.03 mM
[2]; A, 1st precipitation
  Supernatant concentration [mM] Nd: 1.16 mM and 1.49 mM
  Precipitate concentration [mM] Nd: 3.34 mM and 3.17 mM and 3.59 mM
  precipitate concentration [mM] Pr: 3.57 mM and 3.50 mM and 3.83 mM
[2]; A, 1st precipitation, 20 mM (4 eq) α-HIBA
  supernatant concentration [mM] Pr: 0.73 mM and 1.00 mM and 0.72 mM
[2]; A, 1st precipitation, 20 mM (4 eq) α-HIBA, mean
  supernatant concentration [mM] Pr: 0.82 mM
[2]; A, 1st precipitation, mean
  Precipitate concentration [mM] Nd: 3.37 mM
  precipitate concentration [mM] Pr: 3.63 mM
  Supernatant concentration [mM] Nd: 1.27 mM
[2]; B, 2nd precipitation
  Supernatant concentration [mM] Nd: 0.94 mM and 0.79 mM and 0.88 mM
  supernatant concentration [mM] Pr: 0.63 mM and 0.56 mM and 0.58 mM
  Precipitate concentration [mM] Nd: 3.81 mM and 3.53 mM and 3.91 mM
  precipitate concentration [mM] Pr: 4.45 mM and 4.22 mM and 4.52 mM
[2]; B, 2nd precipitation, mean
  Precipitate concentration [mM] Nd: 3.75 mM
  precipitate concentration [mM] Pr: 4.40 mM
  Supernatant concentration [mM] Nd: 0.87 mM
  supernatant concentration [mM] Pr: 0.59 mM
[2]; C, 3rd precipitation
  Supernatant concentration [mM] Nd: 0.87 mM and 0.93 mM and 0.75 mM
  supernatant concentration [mM] Pr: 0.66 mM and 0.74 mM and 0.56 mM
  Precipitate concentration [mM] Nd: 3.70 mM and 3.29 mM and 4.06 mM
  precipitate concentration [mM] Pr: 4.70 mM and 4.31 mM and 4.98 mM
[2]; C, 3rd precipitation, mean
  Precipitate concentration [mM] Nd: 3.68 mM
  precipitate concentration [mM] Pr: 4.66 mM
  Supernatant concentration [mM] Nd: 0.85 mM
  supernatant concentration [mM] Pr: 0.65 mM
